Patent US20230390411A1, “CONJUGATE AND USE THEREOF” (NANJING CHEMPION BIOTECHNOLOGY CO., LTD., priority 2021, published 2023)
Starred links: 1 amine or outer side, 2 acyl side, 3 side chain; linkers in the order of their positions; H or OH if unused. Non-standard residues stand in square brackets, D forms with d. Residues, ends and D or L forms follow the SMILES beside them. *: point of attachment. Exatecan = CC[C@@]1(O)C(=O)OCc2c1cc1n(c2=O)Cc2c-1nc1cc(F)c(C)c3c1c2[C@@H](N*)CC3; Dolaproine = CO[C@@H]([C@@H]1CCCN1)[C@@H](C)C(=O)O; Hexanoyl(6-maleimido) = O=C1C=CC(=O)N1CCCCCC(=O)*; Dil = CC[C@H](C)[C@H](NC)[C@@H](CC(=O)O)OC; NHCH2OCH2CO = O=C(COCN[*:1])[*:2]; X1 = C[C@@H](N*)[C@@H](O)c1ccccc1; NMeV = CN[C@H](C(=O)O)C(C)C

Tested on: NCI-N87 cells
Assay: Cytotoxicity assay (CellTiter-Glo)
Format: cell-based
Conditions: 6 days, max 50 nM
Method: When the confluence of cultured NCI-N87 cells reached 70-90%, the cells were digested with trypsin. The trypsin was removed by centrifugation. […] The plate was incubated in a 5% CO2 incubator at 37° C. for 6 days. After the incubation was completed, the cell viability was detected with CellTiter-Glo reagent (Promega, G7573), and the specific cell viability value was measured by a multifunctional microplate reader (PerkinElmer, EnVision).

Compound | Max Cytotoxicity % [%] | IC50 (Homo sapiens, 144 h) [nM] | IC50 [nM]
CC[C@@]1(O)C(=O)OCc2c1cc1n(c2=O)Cc2c-1nc1cc(F)c(C)c3c1c2[C@@H](NC(=O)COCNC(=O)CNC(=O)[C@H](Cc1ccccc1)NC(=O)CNC(=O)CNC(=O)CCCCCN1C(=O)C=CC1=O)CC3 [DS8201 scaffold, Deruxtecan] ({Hexanoyl(6-maleimido)}-GGFG[NHCH2OCH2CO]-Exatecan) | 9.38 |  | 
C=C1C[C@@H]2CC[C@@]34C[C@H]5O[C@H]6[C@@H](O3)[C@H]3O[C@H](CC[C@@H]3O[C@H]6[C@H]5O4)CC(=O)C[C@@H]3[C@@H](OC)[C@@H](C[C@H](O)CN)O[C@H]3C[C@H]3O[C@@H](CC[C@@H]1O2)C[C@@H](C)C3=C [Eribulin, eribulin] | 93.99 | 0.22 | 
CC[C@H](C)[C@@H]([C@@H](CC(=O)N1CCC[C@H]1[C@H](OC)[C@@H](C)C(=O)N[C@H](C)[C@@H](O)c1ccccc1)OC)N(C)C(=O)[C@@H](NC(=O)[C@@H](NC)C(C)C)C(C)C [MMAE, monomethyl auristatin E] (H-[NMeV]V[Dil][Dolaproine]-X1) | 93.50 |  | 0.13
